Source: paper PMC10709440, “High-throughput ligand profile characterization in novel cell lines expressing seven heterologous insect olfactory receptors for the detection of volatile plant biomarkers” (Scientific Reports, 2023)
Read-outs that look alike come from different tables or passages of the source.

Assays:
Drosophila OR85b = target: T1, Drosophila OR85b (Drosophila melanogaster, UniProt Q9VHQ7); experiment: Calcium ion fluorescence (GCaMP6) assay, OR85b stable HEK293 cell line; type: cell-based; settings: for activation at 1 µM / activation at 10 µM / activation at 100 µM: HEK293, read-out: OR85b response (VUAA1-normalized response); for Average response / OR85b response (VUAA1-normalized) at 1 μM / OR85b response (VUAA1-normalized) at 10 μM / OR85b response (VUAA1-normalized) at 100 μM: OR85b cell line; for Average response: VUAA1-normalized response, mean of biological replicates
T1 construct: expressed in transfected cells
T1 sequence (Q9VHQ7 1-390): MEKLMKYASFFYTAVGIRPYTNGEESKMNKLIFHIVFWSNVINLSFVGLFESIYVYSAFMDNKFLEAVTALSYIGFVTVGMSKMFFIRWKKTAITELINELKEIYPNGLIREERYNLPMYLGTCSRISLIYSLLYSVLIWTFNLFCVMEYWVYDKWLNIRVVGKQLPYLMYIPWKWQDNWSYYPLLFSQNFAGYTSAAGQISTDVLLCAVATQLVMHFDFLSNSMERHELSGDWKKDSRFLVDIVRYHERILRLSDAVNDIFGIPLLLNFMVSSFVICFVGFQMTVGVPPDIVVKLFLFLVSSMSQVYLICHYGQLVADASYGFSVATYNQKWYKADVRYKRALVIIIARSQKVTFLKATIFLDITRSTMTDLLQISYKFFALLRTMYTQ
T1 sequence (Q9VNB5 1-486 partner): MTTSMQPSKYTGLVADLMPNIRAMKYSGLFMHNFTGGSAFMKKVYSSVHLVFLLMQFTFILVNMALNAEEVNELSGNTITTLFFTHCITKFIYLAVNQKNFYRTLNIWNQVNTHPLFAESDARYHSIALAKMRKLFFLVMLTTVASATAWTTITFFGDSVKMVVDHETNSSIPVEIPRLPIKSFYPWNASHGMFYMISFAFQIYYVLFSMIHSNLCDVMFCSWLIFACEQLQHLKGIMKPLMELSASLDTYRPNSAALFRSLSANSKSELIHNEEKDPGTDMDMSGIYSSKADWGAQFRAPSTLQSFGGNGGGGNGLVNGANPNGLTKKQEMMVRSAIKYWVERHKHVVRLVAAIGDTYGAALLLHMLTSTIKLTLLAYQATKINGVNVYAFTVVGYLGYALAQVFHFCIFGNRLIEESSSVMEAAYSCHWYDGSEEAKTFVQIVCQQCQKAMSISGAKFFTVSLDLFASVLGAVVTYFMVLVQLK
How it was run: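 HEK293 lines stably expressing each Drosophila OR with GCaMP6, doxycycline-induced (1 μg/mL) 48 or 72 h. Fluorescence recorded 5 s baseline then 30 s after VOC injection at pH 7.3; ΔF=(FMAX−F0)/F0, normalized to 50 µM VUAA1 response per line, triplicate wells averaged; concentration series 0.01–100 μM.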

OR10a = tested on: OR10a; parameters: method as in earlier work; settings: DoOR database value, ref DoOR, cited from earlier work
OR13a = tested on: OR13a; parameters: method as in earlier work; settings: DoOR database value, ref DoOR, cited from earlier work
OR47a = tested on: OR47a; parameters: method as in earlier work; settings: DoOR database value, ref DoOR, cited from earlier work
OR49b = tested on: OR49b; parameters: method as in earlier work; settings: DoOR database value, ref DoOR, cited from earlier work
OR85b = tested on: OR85b; parameters: method as in earlier work; settings: DoOR database value, ref DoOR, cited from earlier work
OR98a = tested on: OR98a; parameters: method as in earlier work; settings: DoOR database value, ref DoOR, cited from earlier work
[1] = concentration 1, normalized fluorescence change, values below 0.05 threshold given as 0
[2] = concentration 10, normalized fluorescence change, values below 0.05 threshold given as 0
[3] = concentration 100, normalized fluorescence change, values below 0.05 threshold given as 0
[4] = ligand concentration 1 (unit not given), threshold 0.05, below shown as 0
[5] = ligand concentration 10 (unit not given), threshold 0.05, below shown as 0
[6] = ligand concentration 100 (unit not given), threshold 0.05, below shown as 0

| SMILES | activation at 1 µM (Drosophila OR85b) [%] | activation at 10 µM (Drosophila OR85b) [%] | activation at 100 µM (Drosophila OR85b) [%] | Average response (Drosophila OR85b; cc. 1 µM) | Average response (Drosophila OR85b; cc. 10 µM) | Average response (Drosophila OR85b; cc. 100 µM) | DF norm AVERAGE OR85b (Drosophila OR85b; [1]) | DF norm AVERAGE OR85b (Drosophila OR85b; [2]) | DF norm AVERAGE OR85b (Drosophila OR85b; [3]) | OR10a DoOR response (OR10a) | DF norm AVERAGE OR85b (Drosophila OR85b; [4]) | DF norm AVERAGE OR85b (Drosophila OR85b; [5]) | DF norm AVERAGE OR85b (Drosophila OR85b; [6]) | OR47a DoOR response (OR47a) | OR49b DoOR response (OR49b) | OR85b DoOR response (OR85b) | OR98a DoOR response (OR98a) | also measured |
| --- | --- | --- | --- | --- | --- | --- | --- | --- | --- | --- | --- | --- | --- | --- | --- | --- | --- | --- |
| CCCCC(C)O (stereo not shown) [2-hexanol] | 0 | 0 | 0 | 0.05 | 0.00 | 0.00 | 0 | 0 | 0 | 0.14 | – | – | – | – | – | – | – | OR13a DoOR response (OR13a): 0.58 |
| CCCCC(C)=O [2-hexanone] | 0 | 6 | 0 | 0.00 | 0.06 | 0.0338 | 0 | 0.05777 | 0 | 0.10 | – | – | – | – | – | – | – | OR13a DoOR response (OR13a): 0.13 |
| CCCCCC(=O)OCC [ethyl hexanoate] | 0 | 0 | 0 | 0.00 | 0.05 | 0.0232 | – | – | – | -0.012 | 0 | 0 | 0 | 0.42 | 0.007 | 0.24 | 0.17 | – |
| CC(C)=CCC/C(C)=C/CC/C(C)=C/CO [e,e-farnesol] | – | – | – | 0.053 | 0.08 | 0.00 | – | – | – | 0.014 | 0.05296 | 0.07925 | 0 | – | – | – | – | OR85b response (VUAA1-normalized response) (Drosophila OR85b; VOC concentration 1 μM): 0.053; OR85b response (VUAA1-normalized response) (Drosophila OR85b; VOC concentration 10 μM): 0.08; OR85b response (VUAA1-normalized response) (Drosophila OR85b; VOC concentration 100 μM): 0.00; OR13a DoOR response (OR13a): 0.075 |
| CC1=CCC2C(C1)C2(C)C (stereo not shown) [3-carene] | 0 | 0 | 0 | 0.00 | 0.00 | 0.00 | 0 | 0 | 0 | -0.005 | – | – | – | -0.002 | 0.002 | -0.008 | -0.009 | – |
| COC(=O)c1ccccc1 [methyl benzoate] | – | – | – | 0.00 | 0.00 | 0.00 | – | – | – | – | 0 | 0 | 0 | – | – | – | – | OR85b response (VUAA1-normalized) at 1 μM (Drosophila OR85b; VOC concentration 1 μM): 0.00; OR85b response (VUAA1-normalized) at 10 μM (Drosophila OR85b; VOC concentration 10 μM): 0.00; OR85b response (VUAA1-normalized) at 100 μM (Drosophila OR85b; VOC concentration 100 μM): 0.00; OR10a DoOR response (OR10a; OR10a): 0.63; OR47a DoOR response (OR47a; OR47a): 0.09; OR49b DoOR response (OR49b; OR49b): 0.035; OR85b DoOR response (OR85b; OR85b): 0.036; OR98a DoOR response (OR98a; OR98a): 0.70 |
| CC/C=C\CCOC(C)=O [Z-3-hexenyl acetate] | – | – | – | – | – | – | – | – | – | – | – | – | – | – | – | – | – | OR85b response (VUAA1-normalized) at 1 μM (Drosophila OR85b; VOC concentration 1 μM): 0.15; OR85b response (VUAA1-normalized) at 10 μM (Drosophila OR85b; VOC concentration 10 μM): 0.00; OR85b response (VUAA1-normalized) at 100 μM (Drosophila OR85b; VOC concentration 100 μM): 0.00; OR10a DoOR response (OR10a; OR10a): 0.004; OR13a DoOR response (OR13a; OR13a): 0.42 |
| CC(=O)OCC(C)C [isobutyl acetate] | 0 | 0 | 0 | 0.044 | 0.00 | 0.03 | – | – | – | 0.35 | 0 | 0 | 0 | 0.58 | 0.006 | 0.39 | 0.67 | – |
| Cc1ccc(C(C)C)cc1 [p-cymene] | – | – | – | 0.00 | 0.12 | 0.09 | – | – | – | – | 0 | 0.1172 | 0.09049 | – | – | – | – | OR85b response (VUAA1-normalized) at 1 μM (Drosophila OR85b; VOC concentration 1 μM): 0.00; OR85b response (VUAA1-normalized) at 10 μM (Drosophila OR85b; VOC concentration 10 μM): 0.12; OR85b response (VUAA1-normalized) at 100 μM (Drosophila OR85b; VOC concentration 100 μM): 0.09; OR10a DoOR response (OR10a; OR10a): -0.003; OR47a DoOR response (OR47a; OR47a): 0.018; OR49b DoOR response (OR49b; OR49b): 0.014; OR85b DoOR response (OR85b; OR85b): -0.004; OR98a DoOR response (OR98a; OR98a): -0.012 |
| CCCCCO [1-pentanol] | 0 | 0 | 0 | 0.00 | 0.00 | 0.00 | 0 | 0 | 0 | 0.034 | – | – | – | 0.17 | 0.09 | 0.51 | 0.23 | – |
| C=C(C)[C@H]1CC=C(C)CC1 [limonene] | – | – | – | 0.07 | 0.09 | 0.0644 | – | – | – | -0.001 | 0.07022 | 0.08814 | 0.06443 | 0.056 | 0.016 | 0.10 | 0.09 | OR85b response (VUAA1-normalized response) (Drosophila OR85b; VOC concentration 1 μM): 0.07; OR85b response (VUAA1-normalized response) (Drosophila OR85b; VOC concentration 10 μM): 0.09; OR85b response (VUAA1-normalized response) (Drosophila OR85b; VOC concentration 100 μM): 0.0644 |
